Drawing on patent US20130217664A1, “NOVEL COMPOUNDS USEFUL FOR THE TREATMENT OF DEGENERATIVE AND INFLAMMATORY DISEASES” (priority 2012, published 2013), this text covers IC50 for 23 compounds.

Holding throughout (type): biochemical
One test deals with T1, human JAK1 (Homo sapiens, UniProt P23458).
T1 construct: catalytic domain, amino acids 866-1154; catalog number PV4774; purchased Invitrogen PV4774
The test can be described thus: JAK1 inhibition assay (polyGT substrate / Ulight-JAK1 peptide). To be noted: recombinant human JAK1 catalytic domain; polyGT or Ulight-JAK1 peptide assay. The gist of the method:
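Two formats. PolyGT radiometric: 45 min at 30 °C, stopped with phosphoric acid, counted as cpm. Ulight-JAK1 peptide: 60 min at room temperature, stopped with Eu-anti-phosphotyrosine/EDTA, read as RFU. Percent inhibition normalised to vehicle and 10 μM staurosporine.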

A further test deals with T2, human JAK2 (Homo sapiens, UniProt O60674).
T2 construct: catalytic domain (amino acids 808-1132; catalog number PV4210); GST; purchased Invitrogen PV4210
The test can be described thus: JAK2 inhibition assay (polyGT substrate / Ulight-JAK1 peptide). The settings on record: recombinant human JAK2 catalytic domain; polyGT or Ulight-JAK1 peptide assay. The gist of the method:
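Radiometric: 0.025 mU JAK2 with 2.5 μg polyGT, 1 μM ATP plus ^33P-ATP in MOPS pH 7.5 buffer, 1% DMSO, 90 min at 30° C.; filter counting. Alternative TR-FRET format with Ulight-JAK1 peptide, 60 min at room temperature, Eu-anti-phosphotyrosine detection.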

In the next test the target is T3, human TYK2 (Homo sapiens, UniProt P29597).
T3 construct: catalytic domain (amino acids 871-1187; catalog number 08-147); purchased Carna Biosciences 08-147
T3 sequence (P29597 871-1187): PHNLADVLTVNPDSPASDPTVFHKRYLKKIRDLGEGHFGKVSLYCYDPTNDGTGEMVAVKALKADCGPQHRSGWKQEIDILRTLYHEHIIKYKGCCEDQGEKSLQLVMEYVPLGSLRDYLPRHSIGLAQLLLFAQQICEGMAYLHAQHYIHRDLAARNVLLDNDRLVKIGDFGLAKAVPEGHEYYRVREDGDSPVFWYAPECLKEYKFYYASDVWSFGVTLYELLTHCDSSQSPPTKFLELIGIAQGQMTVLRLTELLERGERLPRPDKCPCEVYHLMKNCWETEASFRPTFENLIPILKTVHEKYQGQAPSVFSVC
Kind of test: TYK2 inhibition assay. To be noted: recombinant human TYK2 catalytic domain, polyGT substrate. A digest of the protocol:
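Radiometric kinase reaction run 90 min at 30 °C, stopped with phosphoric acid, washed and scintillation-counted.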

Molecules are shown by their SMILES.

T1 sequence (P23458 866-1154): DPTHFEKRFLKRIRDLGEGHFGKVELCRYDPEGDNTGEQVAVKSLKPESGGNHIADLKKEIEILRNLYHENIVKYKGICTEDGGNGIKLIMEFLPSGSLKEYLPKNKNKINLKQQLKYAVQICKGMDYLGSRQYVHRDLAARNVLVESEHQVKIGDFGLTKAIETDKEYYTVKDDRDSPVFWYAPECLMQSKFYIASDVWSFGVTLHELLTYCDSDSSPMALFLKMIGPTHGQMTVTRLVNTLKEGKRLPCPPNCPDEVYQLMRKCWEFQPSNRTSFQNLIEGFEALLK
T2 sequence (O60674 808-1132): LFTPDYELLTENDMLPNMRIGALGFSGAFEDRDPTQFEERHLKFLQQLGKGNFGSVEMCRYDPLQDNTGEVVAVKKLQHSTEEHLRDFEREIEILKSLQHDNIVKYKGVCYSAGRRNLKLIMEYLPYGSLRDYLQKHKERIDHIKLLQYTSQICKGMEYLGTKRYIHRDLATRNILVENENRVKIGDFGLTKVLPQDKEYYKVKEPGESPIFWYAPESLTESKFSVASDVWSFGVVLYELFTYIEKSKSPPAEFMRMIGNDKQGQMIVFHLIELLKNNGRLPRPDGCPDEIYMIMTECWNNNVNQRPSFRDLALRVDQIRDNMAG

Consider `CN(c1ccc(O)cc1)c1cc2c(cn1)ncn2C` [Compound 17, 4-(methyl(1-methyl-1H-imidazo[4,5-c]pyridin-6-yl)amino)phenol], for which the concentration for half-maximal inhibition (IC50) (as a rule, the concentration that gives 50% inhibition) fell in the range of 0.01 to 100 nM on human JAK1, 501 to 1000 nM at human JAK2 and 101 to 500 nM at human TYK2.
With `CN(c1ccc(CC#N)cc1)c1cc2c(cn1)ncn2C` [Compound 26, 2-(4-(Methyl(1-methyl-1H-imidazo[4,5-c]pyridin-6-yl)amino)phenyl)acetonitrile], the IC50 at human JAK1 was in the range of 0.01 to 100 nM; at human JAK2, 101 to 500 nM; on human TYK2 it was 101 to 500 nM.
For `COC(=O)c1ccc(N(C)c2cc3c(cn2)ncn3C)c(C)c1` [Compound 27, Methyl 3-methyl-4-(methyl(1-methyl-1H-imidazo[4,5-c]pyridin-6-yl)amino)benzoate], the half-inhibitory concentration (IC50) on human JAK1 is 101 to 500 nM; on human JAK2 it was over 1000 nM; on human TYK2 it was over 1000 nM.
As to `CCc1cc(F)ccc1N(C)c1cc2c(cn1)ncn2C` [Compound 28, N-(2-Ethyl-4-fluorophenyl)-N,1-dimethyl-1H-imidazo[4,5-c]pyridin-6-amine], the 50% inhibitory concentration (IC50) at human JAK1 lay in the range of 0.01 to 100 nM; on human JAK2, 501 to 1000 nM; at human TYK2, 101 to 500 nM.
Taken in the same sequence, the figures for `Cc1cc(CO)ccc1N(C)c1cc2c(cn1)ncn2C` [Compound 29, (3-Methyl-4-(methyl(1-methyl-1H-imidazo[4,5-c]pyridin-6-yl)amino)phenyl) MeOH] were 0.01 to 100 nM, over 1000 nM and 501 to 1000 nM.
The corresponding values for `CNC(=O)c1ccc(N(C)c2cc3c(cn2)ncn3C)c(C)c1` [Compound 30, N,3-Dimethyl-4-(methyl(1-methyl-1H-imidazo[4,5-c]pyridin-6-yl)amino)-benzamide] are 101 to 500 nM, over 1000 nM and over 1000 nM.
Taken in the same sequence, the figures for `Cc1cc(C#N)ccc1N(C)c1cc2c(cn1)ncn2C` [Compound 31, 3-Methyl-4-(methyl(1-methyl-1H-imidazo[4,5-c]pyridin-6-yl)amino)benzonitrile] were 0.01 to 100 nM, over 1000 nM and 501 to 1000 nM.
With `Cc1cc(C(N)=O)ccc1N(C)c1cc2c(cn1)ncn2C` [Compound 32, 3-Methyl-4-(methyl(1-methyl-1H-imidazo[4,5-c]pyridin-6-yl)amino)benzamide], the concentration for half-maximal inhibition (IC50) was 0.01 to 100 nM on human JAK1, over 1000 nM at human JAK2 and over 1000 nM at human TYK2.
For `COc1ccc(COc2ccc(N(C)c3cc4c(cn3)ncn4C)c(C)c2)cc1` [Compound 33, N-(4-(4-Methoxybenzyloxy)-2-methylphenyl)-N,1-dimethyl-1H-imidazo[4,5-c]pyridin-6-amine], the concentration for half-maximal inhibition (IC50) is 0.01 to 100 nM at human JAK1, over 1000 nM on human JAK2 and over 1000 nM at human TYK2.
For the compound `CCc1ccccc1N(CC)c1cc2c(cn1)ncn2C` [Compound 34, N-Ethyl-N-(2-ethylphenyl)-1-methyl-1H-imidazo[4,5-c]pyridin-6-amine], the results for the IC50 on human JAK1, on human JAK2 and on human TYK2 were 0.01 to 100 nM, 501 to 1000 nM and 0.01 to 100 nM, respectively.
As to `CCc1ccccc1N(CC1CC1)c1cc2c(cn1)ncn2C` [Compound 35, N-(cyclopropylmethyl)-N-(2-ethylphenyl)-1-methyl-1H-imidazo[4,5-c]pyridin-6-amine], the figures for the IC50 on human JAK1, on human JAK2 and at human TYK2 were 0.01 to 100 nM, over 1000 nM and 101 to 500 nM, respectively.
Consider `Cc1cc(O)ccc1N(C)c1cc2c(cn1)ncn2C` [Compound 38, 3-Methyl-4-(methyl(1-methyl-1H-imidazo[4,5-c]pyridin-6-yl)amino)phenol], for which the figures for the half-inhibitory concentration (IC50) at human JAK1, at human JAK2 and on human TYK2 were 0.01 to 100 nM, over 1000 nM and 101 to 500 nM, respectively.
Taken in the same sequence, the figures for `CN(c1cc2c(cn1)ncn2C)c1ccccc1OC(F)F` [Compound 39, N-(2-(difluoromethoxy)phenyl)-N,1-dimethyl-1H-imidazo[4,5-c]pyridin-6-amine] were 0.01 to 100 nM, 501 to 1000 nM and 501 to 1000 nM.
Taken in the same sequence, the figures for `COc1ccc(COc2ccc(C)c(N(C)c3cc4c(cn3)ncn4C)c2)cc1` [Compound 43, N-(5-(4-methoxybenzyloxy)-2-methylphenyl)-N,1-dimethyl-1H-imidazo[4,5-c]pyridin-6-amine] were 101 to 500 nM, over 1000 nM and over 1000 nM.
The corresponding values for `Cc1cc(OCC#N)ccc1N(C)c1cc2c(cn1)ncn2C` [Compound 47, 2-(3-methyl-4-(methyl(1-methyl-1H-imidazo[4,5-c]pyridin-6-yl)amino)phenoxy)acetoni-trile] are 0.01 to 100 nM, 101 to 500 nM and 101 to 500 nM.
For the compound `Cc1cc(OCCCC#N)ccc1N(C)c1cc2c(cn1)ncn2C` [Compound 48, 4-(3-methyl-4-(methyl(1-methyl-1H-imidazo[4,5-c]pyridin-6-yl)amino)phenoxy)butane nitrile], the half-maximal inhibitory concentration (IC50) at human JAK1 was 0.01 to 100 nM; on human JAK2, over 1000 nM; on human TYK2, 501 to 1000 nM.
The corresponding values for `Cc1ccc(OCc2ccccc2)cc1N(C)c1cc2c(cn1)ncn2C` [Compound 56, N-(5-(benzyloxy)-2-methylphenyl)-N,1-dimethyl-1H-imidazo[4,5-c]pyridin-6-amine] are 101 to 500 nM, over 1000 nM and over 1000 nM.
Taken in the same sequence, the figures for `Cc1ccc(OCC#N)cc1N(C)c1cc2c(cn1)ncn2C` [Compound 57, 2-(4-methyl-3-(methyl(1-methyl-1H-imidazo[4,5-c]pyridin-6-yl)amino)phenoxy)acetoni-trile] were 0.01 to 100 nM, 101 to 500 nM and 501 to 1000 nM.
Taken in the same sequence, the figures for `Cc1ccc(OCCCC#N)cc1N(C)c1cc2c(cn1)ncn2C` [Compound 60, 4-(4-methyl-3-(methyl(1-methyl-1H-imidazo[4,5-c]pyridin-6-yl)amino)phenoxy)butane nitrile] were 0.01 to 100 nM, over 1000 nM and 501 to 1000 nM.
With `Cc1ccc(OCc2cccnc2)cc1N(C)c1cc2c(cn1)ncn2C` [Compound 61, N,1-dimethyl-N-(2-methyl-5-(pyridin-3-ylmethoxy)phenyl)-1H-imidazo[4,5-c]pyridin-6-amine], the IC50 on human JAK1 was 0.01 to 100 nM; at human JAK2, over 1000 nM; at human TYK2, over 1000 nM.
`Cc1ccc(OCc2ccc(Cl)cc2)cc1N(C)c1cc2c(cn1)ncn2C` [Compound 62, N-(5-(4-chlorobenzyloxy)-2-methylphenyl)-N,1-dimethyl-1H-imidazo[4,5-c]pyridin-6-amine]: the results for the concentration for half-maximal inhibition (IC50) at human JAK1, at human JAK2 and at human TYK2 were 501 to 1000 nM, over 1000 nM and over 1000 nM, respectively.
With `Cc1ccc(OCC(C)C)cc1N(C)c1cc2c(cn1)ncn2C` [Compound 63, N-(5-isobutoxy-2-methylphenyl)-N,1-dimethyl-1H-imidazo[4,5-c]pyridin-6-amine], the results for the 50% inhibitory concentration (IC50) at human JAK1, on human JAK2 and at human TYK2 were 101 to 500 nM, over 1000 nM and over 1000 nM, respectively.
Consider `Cc1c(OCC#N)cccc1N(C)c1cc2c(cn1)ncn2C` [Compound 64, 2-(2-methyl-3-(methyl(1-methyl-1H-imidazo[4,5-c]pyridin-6-yl)amino)phenoxy)acetoni-trile], for which the half-inhibitory concentration (IC50) at human JAK1 fell in the range of 0.01 to 100 nM; on human JAK2, 101 to 500 nM; on human TYK2 it was 101 to 500 nM.
